Our source for the IC50 values is ChEMBL document CHEMBL1134947, “A mechanism-based probe for gp120-Hydrolyzing antibodies” (Bioorg Med Chem Lett, 2002).

The assay deals with T1, Serine protease 1 (Bos taurus, UniProt P00760).
T1 sequence (P00760 whole entry): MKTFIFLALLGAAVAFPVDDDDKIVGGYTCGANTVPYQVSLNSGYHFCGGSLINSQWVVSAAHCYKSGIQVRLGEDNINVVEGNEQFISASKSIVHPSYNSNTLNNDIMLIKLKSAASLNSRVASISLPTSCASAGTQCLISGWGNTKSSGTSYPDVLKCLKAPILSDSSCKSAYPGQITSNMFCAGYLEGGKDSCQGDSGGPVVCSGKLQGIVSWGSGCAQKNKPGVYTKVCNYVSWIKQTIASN
The assay is described as follows: Concentration required for the inhibition of catalytic activity of bovine trypsin.

Square brackets hold non-standard residues; d marks the D form. Peptide text beside a SMILES is read from it. * marks the point of attachment. X2 = N=C(N)c1ccc(C(N*)P(=O)(Oc2ccccc2)Oc2ccccc2)cc1; X1 = O=C(CCCCC1SCC2NC(=O)NC21)NCCNC(=O)CCS*; Mpa = O=C(O)CCS

As a reminder, the IC50 is the concentration that inhibits the measured activity by half. A low value points to inhibition by little substance. For `N=C(N)c1ccc(C(NC(=O)CCSSCCC(=O)NCCNC(=O)CCCCC2SCC3NC(=O)NC32)P(=O)(Oc2ccccc2)Oc2ccccc2)cc1` (configuration not stated), the midpoint of inhibition, the IC50, lay at 31 µM.

The compound `CC[C@H](C)[C@H](NC(=O)[C@H](CCC(N)=O)NC(=O)[C@H](CCCCN)NC(=O)CCSSCCC(=O)NCCNC(=O)CCCCC1SCC2NC(=O)NC21)C(=O)N[C@H](C(=O)N[C@@H](CC(N)=O)C(=O)N[C@@H](CCSC)C(=O)N[C@@H](Cc1c[nH]c2ccccc12)C(=O)N[C@@H](CCC(N)=O)C(=O)N[C@@H](CCC(=O)O)C(=O)N[C@H](C(=O)NCC(=O)NC(c1ccc(C(=N)N)cc1)P(=O)(Oc1ccccc1)Oc1ccccc1)C(C)C)[C@@H](C)CC` (some centres not stated) ([Mpa](X1)KQIINMWQEVG-X2) showed an IC50 of 30 µM.
